Measured values from ChEMBL document CHEMBL3885861, “Open TG-GATES”.

Organism: Rattus norvegicus
Experiment: Open TG-GATES - Regimen: Single
Type: toxicity, organism-based, Sprague-Dawley
Set-up: regimen Single, gender Male, age 6 weeks
Settings: in vivo, po, 250 mg/kg, route gavage, dose level Middle; for APTT / Bas / Eos / Fbg / Hb / Ht / Lym / MCH / MCHC / MCV / Mono / Neu / PT / Plat / RBC / Ret / WBC: tissue Blood; for KIDNEY_L / KIDNEY_R / KIDNEY_TOTAL: tissue Kidney; for LIVER: tissue Liver; for A/G / ALP / ALT / AST / BUN / CRE / Ca / Cl / DBIL / GLC / IP / K / LDH / Na / PL / RALB / TBIL / TC / TG / TP / gamma-GTP: tissue Plasma

With `CN(C/C=C/C#CC(C)(C)C)Cc1cccc2ccccc12` [TERBINAFINE] the TERMINAL_BW (3 h) was 225.8 g, the APTT (3 h) was 20 s and the Bas (3 h) was 0.6%. It also gave an Eos (3 h) of 0.8%, a Fbg (3 h) of 215.8 mg/dL and a Hb (3 h) of 13.2 g/dL. It also gave a Ht (3 h) of 39.2%, a Lym (3 h) of 79.4% and an MCH (3 h) of 21.8 pg. The MCHC (3 h) was 33.7%, the MCV (3 h) was 64.7 fL and the Mono (3 h) was 2.2%. The Neu (3 h) was 16.6%, the PT (3 h) was 12.2 s and the Plat (3 h) was 125.2 x10_4/uL. It also gave an RBC (3 h) of 606.8 x10_4/ul, a Ret (3 h) of 7.2% and a WBC (3 h) of 90.5 x10_2/uL. It also gave a KIDNEY_L (3 h) of 1 g, a KIDNEY_R (3 h) of 1 g and a KIDNEY_TOTAL (3 h) of 2 g. It also gave an LIVER (3 h) of 10.4 g, an A/G (3 h) of 1.7 and an ALP (3 h) of 909.4 IU/L. The ALT (3 h) was 42.4 IU/L, the AST (3 h) was 72.8 IU/L and the BUN (3 h) was 12 mg/dL. It also gave a CRE (3 h) of 0.4 mg/dL, a Ca (3 h) of 10.6 mg/dL and a Cl (3 h) of 103.6 meq/L. It also gave a DBIL (3 h) of 0.084 mg/dL, a GLC (3 h) of 213 mg/dL and an IP (3 h) of 9.1 mg/dL. It also gave a K (3 h) of 3.9 meq/L, an LDH (3 h) of 166.8 IU/L and a Na (3 h) of 141.4 meq/L. It also gave a PL (3 h) of 123.8 mg/dL, an RALB (3 h) of 3.4 g/dL and a TBIL (3 h) of 0.1 mg/dL. For the same molecule, the TC (3 h) was 65 mg/dL, the TG (3 h) was 43.8 mg/dL and the TP (3 h) was 5.4 g/dL. For the same molecule, the gamma-GTP (3 h) was 1 IU/L, the TERMINAL_BW (6 h) was 221.8 g and the APTT (6 h) was 18.1 s. For the same molecule, the Bas (6 h) was 0.4%, the Eos (6 h) was 0.8% and the Fbg (6 h) was 220.6 mg/dL. It also gave a Hb (6 h) of 13.3 g/dL, a Ht (6 h) of 39.5% and a Lym (6 h) of 74%. For the same molecule, the MCH (6 h) was 21.5 pg, the MCHC (6 h) was 33.7% and the MCV (6 h) was 64 fL. For the same molecule, the Mono (6 h) was 2.4%, the Neu (6 h) was 22.2% and the PT (6 h) was 12.3 s. The Plat (6 h) was 110.3 x10_4/uL, the RBC (6 h) was 617.4 x10_4/ul and the Ret (6 h) was 6.8%. It also gave a WBC (6 h) of 90.7 x10_2/uL, a KIDNEY_L (6 h) of 1 g and a KIDNEY_R (6 h) of 1 g. It also gave a KIDNEY_TOTAL (6 h) of 2 g, an LIVER (6 h) of 9.6 g and an A/G (6 h) of 1.8. For the same molecule, the ALP (6 h) was 842.8 IU/L, the ALT (6 h) was 36 IU/L and the AST (6 h) was 70.6 IU/L. The BUN (6 h) was 11.4 mg/dL, the CRE (6 h) was 0.4 mg/dL and the Ca (6 h) was 10.6 mg/dL. For the same molecule, the Cl (6 h) was 102.8 meq/L, the DBIL (6 h) was 0.086 mg/dL and the GLC (6 h) was 204 mg/dL. It also gave an IP (6 h) of 9.7 mg/dL, a K (6 h) of 4 meq/L and an LDH (6 h) of 156 IU/L. The Na (6 h) was 141.4 meq/L, the PL (6 h) was 132.2 mg/dL and the RALB (6 h) was 3.5 g/dL. It also gave a TBIL (6 h) of 0.2 mg/dL, a TC (6 h) of 71.8 mg/dL and a TG (6 h) of 35.2 mg/dL. The TP (6 h) was 5.4 g/dL, the gamma-GTP (6 h) was 1 IU/L and the TERMINAL_BW (9 h) was 220.9 g. The APTT (9 h) was 18.2 s, the Bas (9 h) was 0.6% and the Eos (9 h) was 1%. It also gave a Fbg (9 h) of 211.6 mg/dL, a Hb (9 h) of 12.8 g/dL and a Ht (9 h) of 38.5%. It also gave a Lym (9 h) of 77.8%, an MCH (9 h) of 20.8 pg and an MCHC (9 h) of 33.3%. The MCV (9 h) was 62.3 fL, the Mono (9 h) was 2.4% and the Neu (9 h) was 18.2%. For the same molecule, the PT (9 h) was 12.5 s, the Plat (9 h) was 114.8 x10_4/uL and the RBC (9 h) was 618 x10_4/ul. The Ret (9 h) was 6.3%, the WBC (9 h) was 74.3 x10_2/uL and the KIDNEY_L (9 h) was 1 g. It also gave a KIDNEY_R (9 h) of 1 g, a KIDNEY_TOTAL (9 h) of 2 g and an LIVER (9 h) of 9.1 g. It also gave an A/G (9 h) of 1.6, an ALP (9 h) of 845 IU/L and an ALT (9 h) of 31.4 IU/L. For the same molecule, the AST (9 h) was 67.6 IU/L, the BUN (9 h) was 12 mg/dL and the CRE (9 h) was 0.4 mg/dL. The Ca (9 h) was 10.3 mg/dL, the Cl (9 h) was 103.4 meq/L and the DBIL (9 h) was 0.074 mg/dL. It also gave a GLC (9 h) of 198.2 mg/dL, an IP (9 h) of 10.8 mg/dL and a K (9 h) of 4.1 meq/L. It also gave an LDH (9 h) of 153 IU/L, a Na (9 h) of 141.8 meq/L and a PL (9 h) of 122 mg/dL. For the same molecule, the RALB (9 h) was 3.4 g/dL, the TBIL (9 h) was 0.1 mg/dL and the TC (9 h) was 64 mg/dL. For the same molecule, the TG (9 h) was 26.6 mg/dL, the TP (9 h) was 5.5 g/dL and the gamma-GTP (9 h) was 1.4 IU/L. The TERMINAL_BW (24 h) was 237.1 g, the APTT (24 h) was 18.5 s and the Bas (24 h) was 0.6%. It also gave an Eos (24 h) of 1%, a Fbg (24 h) of 223.8 mg/dL and a Hb (24 h) of 13.4 g/dL. The Ht (24 h) was 39.8%, the Lym (24 h) was 79.2% and the MCH (24 h) was 21.4 pg. For the same molecule, the MCHC (24 h) was 33.8%, the MCV (24 h) was 63.3 fL and the Mono (24 h) was 3.2%. For the same molecule, the Neu (24 h) was 15.6%, the PT (24 h) was 12 s and the Plat (24 h) was 127.3 x10_4/uL. For the same molecule, the RBC (24 h) was 628.2 x10_4/ul, the Ret (24 h) was 6.6% and the WBC (24 h) was 91.5 x10_2/uL. The KIDNEY_L (24 h) was 1.1 g, the KIDNEY_R (24 h) was 1.1 g and the KIDNEY_TOTAL (24 h) was 2.2 g. The LIVER (24 h) was 11.9 g, the A/G (24 h) was 1.6 and the ALP (24 h) was 1068.6 IU/L. The ALT (24 h) was 46.4 IU/L, the AST (24 h) was 84.6 IU/L and the BUN (24 h) was 15.4 mg/dL. The CRE (24 h) was 0.4 mg/dL, the Ca (24 h) was 10.7 mg/dL and the Cl (24 h) was 103.2 meq/L. For the same molecule, the DBIL (24 h) was 0.098 mg/dL, the GLC (24 h) was 191.2 mg/dL and the IP (24 h) was 8.6 mg/dL. The K (24 h) was 3.9 meq/L, the LDH (24 h) was 193.8 IU/L and the Na (24 h) was 141.4 meq/L. It also gave a PL (24 h) of 135 mg/dL, an RALB (24 h) of 3.4 g/dL and a TBIL (24 h) of 0.2 mg/dL. It also gave a TC (24 h) of 72.4 mg/dL, a TG (24 h) of 84 mg/dL and a TP (24 h) of 5.5 g/dL. The gamma-GTP (24 h) was 1.6 IU/L.
